Consider three compounds from ChEMBL document CHEMBL1201862, “PubChem BioAssay data set” (2004).

SMILES strings stand for the structures. Active and inactive are the calls of the source.

In assay [1] the target is T1, Methionyl-tRNA synthetase, putative (Trypanosoma brucei brucei, UniProt Q38C91).
T1 sequence (Q38C91 whole entry): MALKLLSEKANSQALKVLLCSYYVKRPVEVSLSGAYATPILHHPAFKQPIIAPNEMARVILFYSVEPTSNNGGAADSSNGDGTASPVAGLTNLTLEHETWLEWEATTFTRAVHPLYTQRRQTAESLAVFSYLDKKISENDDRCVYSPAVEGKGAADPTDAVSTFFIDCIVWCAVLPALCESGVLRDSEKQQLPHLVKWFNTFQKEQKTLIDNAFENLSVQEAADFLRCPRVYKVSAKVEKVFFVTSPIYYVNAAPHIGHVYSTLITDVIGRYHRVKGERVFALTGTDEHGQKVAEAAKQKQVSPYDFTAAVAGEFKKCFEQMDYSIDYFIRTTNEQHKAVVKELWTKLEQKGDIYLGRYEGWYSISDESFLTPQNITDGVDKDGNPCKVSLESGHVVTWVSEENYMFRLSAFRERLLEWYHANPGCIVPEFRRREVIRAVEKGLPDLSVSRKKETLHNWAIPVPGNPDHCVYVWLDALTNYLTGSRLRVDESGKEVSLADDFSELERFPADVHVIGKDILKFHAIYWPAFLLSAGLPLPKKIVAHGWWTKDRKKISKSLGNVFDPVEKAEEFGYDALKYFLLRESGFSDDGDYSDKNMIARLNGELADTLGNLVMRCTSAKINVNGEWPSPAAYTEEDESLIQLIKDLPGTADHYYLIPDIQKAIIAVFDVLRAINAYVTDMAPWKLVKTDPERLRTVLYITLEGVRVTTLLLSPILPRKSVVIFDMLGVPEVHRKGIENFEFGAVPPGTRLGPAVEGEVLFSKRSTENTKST
The assay is classed as functional, Trypanosoma brucei brucei strain 927/4 GUTat10.1.

The target of assay [2] is T1, Methionyl-tRNA synthetase, putative. It is filed as functional, Trypanosoma brucei brucei strain 927/4 GUTat10.1. This is another data set of the same source.
The subject of assay [3] is HEK293. Kind of assay: HEK cell cytotoxicity by LDH release, dose response, cytotoxicity control for IDE activator project, fluorescence, HEK cells (AID 588440).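 Also: cytotoxicity by LDH release measuring loss of membrane integrity.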 The assay is classed as functional, cell-based. Particulars: Homo sapiens. (In general: Release of lactate dehydrogenase indicates damage to the cell membrane.)
A further assay can be described thus: cells. The assay is classed as functional.
In assay [4] the test system is HEK293. The experiment in a line: optical interference in Abeta FP readout, dose response, artefact control for IDE activator project, biochemical, fluorescence polarization (AID 588442). The assay is classed as functional, cell-based. Particulars: Homo sapiens. In general terms: Fluorescence polarisation rises when a labelled molecule tumbles more slowly, as on binding a larger partner.

The target of assay [5] is T2, Insulin-degrading enzyme (Homo sapiens, UniProt P14735).
T2 sequence (P14735 whole entry): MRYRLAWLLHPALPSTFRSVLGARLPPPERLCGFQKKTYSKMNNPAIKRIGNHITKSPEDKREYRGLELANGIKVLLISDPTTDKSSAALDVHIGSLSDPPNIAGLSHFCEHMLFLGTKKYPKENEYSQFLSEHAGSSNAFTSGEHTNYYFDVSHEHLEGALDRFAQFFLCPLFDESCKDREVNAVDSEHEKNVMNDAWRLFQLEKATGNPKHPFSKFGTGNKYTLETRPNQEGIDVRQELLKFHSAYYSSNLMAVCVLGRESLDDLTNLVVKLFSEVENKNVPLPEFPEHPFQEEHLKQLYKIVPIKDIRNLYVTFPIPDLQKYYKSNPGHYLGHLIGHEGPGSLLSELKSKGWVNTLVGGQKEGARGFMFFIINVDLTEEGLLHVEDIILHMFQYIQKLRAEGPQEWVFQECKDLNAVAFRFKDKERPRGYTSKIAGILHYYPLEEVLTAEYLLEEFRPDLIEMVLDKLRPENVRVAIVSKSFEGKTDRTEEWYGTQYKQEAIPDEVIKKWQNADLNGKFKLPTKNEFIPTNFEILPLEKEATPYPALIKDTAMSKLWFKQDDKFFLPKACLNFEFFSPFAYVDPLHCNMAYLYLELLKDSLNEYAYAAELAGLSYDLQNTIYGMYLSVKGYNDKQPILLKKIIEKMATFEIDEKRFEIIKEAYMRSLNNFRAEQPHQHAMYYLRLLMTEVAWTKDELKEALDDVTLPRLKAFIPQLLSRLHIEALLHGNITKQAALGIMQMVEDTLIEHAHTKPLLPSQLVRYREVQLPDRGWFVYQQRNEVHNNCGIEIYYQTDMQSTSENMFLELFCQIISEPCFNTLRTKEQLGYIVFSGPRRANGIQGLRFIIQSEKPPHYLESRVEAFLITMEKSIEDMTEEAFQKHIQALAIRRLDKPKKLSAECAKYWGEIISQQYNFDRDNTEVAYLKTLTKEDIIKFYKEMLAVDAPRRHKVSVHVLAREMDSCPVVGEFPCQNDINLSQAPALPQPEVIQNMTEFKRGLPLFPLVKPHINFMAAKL
Kind of assay: activators of endogenous IDE in HEK cells, dose response, cell-based, fluorescence polarization (AID 588439). It is filed as functional.

A short description of assay [6]: HepG2 cell cytotoxicity, dose response, cytotoxicity control for non-replicating M. tuberculosis project (AID 489018). It is filed as functional. The settings on record: Mycobacterium tuberculosis.
Assay [7] can be described thus: THP-1 cell cytotoxicity, dose response, cytotoxicity control for non-replicating M. tuberculosis project (AID 489025). The assay is classed as functional.
A short description of assay [8]: Counterscreen for inhibitors of Trypanosoma brucei methionyl tRNA synthetase (MetRS): Luminescence-based cell-based high throughput dose response assay to identify compounds that are cytotoxic to Jurkat human T lymphocyte cells. It is filed as functional.
In assay [9] the target is T3, Ubiquitin-conjugating enzyme E2 N (Homo sapiens, UniProt P61088).
T3 sequence (P61088 whole entry): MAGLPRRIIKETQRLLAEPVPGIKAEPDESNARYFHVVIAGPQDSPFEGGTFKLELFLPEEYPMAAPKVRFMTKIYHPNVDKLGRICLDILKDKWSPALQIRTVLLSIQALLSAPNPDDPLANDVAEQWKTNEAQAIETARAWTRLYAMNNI
It is filed as functional.

Assay [10] addresses T2, Insulin-degrading enzyme. Kind of assay: activators of recombinant IDE enzyme, dose response, counter-screen for IDE activator project, biochemical, fluorescence polarization (AID 588681). For orientation: The purpose of a counterscreen is to sort out artefacts and off-target activity.
Assay [11] is described as follows: Vero E6 cell cytotoxicity, dose response, cytotoxicity control for non-replicating M. tuberculosis project, secondary assay (AID 492998). It is filed as functional, VeroE6. The settings on record: Vero C1008.
A short description of assay [12]: Counterscreen for antagonists of the orexin 1 receptor (OX1R; HCRTR1): Fluorescence-based cell-based high throughput dose response assay to identify antagonists of the parental CHO cell line. [Related pubchem assays (depositor defined):AID434989, AID435008, AID463079, AID485270, AID492963, AID492964, AID492965, AID493232, AID504699, AID504701]. The assay is classed as functional.

The next assay deals with CHO-K1. The experiment in a line: Counterscreen for antagonists of the orexin 1 receptor (OX1R; HCRTR1): Homogeneous time resolved fluorescence (HTRF)-based cell-based dose response assay to identify antagonists of the parental CHO-K1 cell line. [Related pubchem assays (depositor defined):AID434989, AID435008, AID463079, AID485270, AID492963, AID492964, AID492965, AID493232, AID504699, AID504701]. The settings on record: Cricetulus griseus. It is filed as functional.

Assay [13] addresses T4, Orexin/Hypocretin receptor type 1 (Homo sapiens, UniProt O43613).
T4 sequence (O43613 whole entry): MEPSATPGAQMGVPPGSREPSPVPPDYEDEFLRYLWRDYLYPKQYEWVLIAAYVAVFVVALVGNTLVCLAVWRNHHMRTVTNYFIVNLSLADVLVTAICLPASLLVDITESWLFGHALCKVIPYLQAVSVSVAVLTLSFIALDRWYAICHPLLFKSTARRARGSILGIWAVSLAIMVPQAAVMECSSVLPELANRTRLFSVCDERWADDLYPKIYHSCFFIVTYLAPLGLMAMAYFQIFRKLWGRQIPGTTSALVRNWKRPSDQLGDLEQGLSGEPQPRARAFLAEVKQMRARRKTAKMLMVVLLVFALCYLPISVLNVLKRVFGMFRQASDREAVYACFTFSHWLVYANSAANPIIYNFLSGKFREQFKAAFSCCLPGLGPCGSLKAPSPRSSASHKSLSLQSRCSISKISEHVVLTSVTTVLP
Kind of assay: Homogeneous Time Resolved Fluorescence (HTRF)-based cell-based high throughput dose response assay for antagonists of the orexin 1 receptor (OX1R; HCRTR1). [Related pubchem assays (depositor defined):AID434989, AID435008, AID463079, AID485270, AID492963, AID492964, AID492965, AID493232, AID504717, AID504718]. The assay is classed as functional.

In assay [14] the target is T5, Orexin receptor type 2 (Homo sapiens, UniProt O43614).
T5 sequence (O43614 whole entry): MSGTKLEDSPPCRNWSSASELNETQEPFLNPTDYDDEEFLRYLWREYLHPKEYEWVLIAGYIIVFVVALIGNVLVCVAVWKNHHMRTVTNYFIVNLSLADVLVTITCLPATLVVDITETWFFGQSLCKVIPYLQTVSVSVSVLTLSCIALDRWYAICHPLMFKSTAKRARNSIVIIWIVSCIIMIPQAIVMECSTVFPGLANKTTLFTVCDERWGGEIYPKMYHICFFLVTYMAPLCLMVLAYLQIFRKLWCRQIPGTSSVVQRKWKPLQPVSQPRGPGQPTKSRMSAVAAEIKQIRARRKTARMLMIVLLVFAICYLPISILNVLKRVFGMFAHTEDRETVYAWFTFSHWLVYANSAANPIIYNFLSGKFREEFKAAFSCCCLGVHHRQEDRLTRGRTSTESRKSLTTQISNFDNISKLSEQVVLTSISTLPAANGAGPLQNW
Kind of assay: Counterscreen assay for antagonists of the orexin 1 receptor (OX1R; HCRTR1): Fluorescence-based cell-based dose response assay for antagonists of the orexin 2 receptor (OX2R; HCRTR2), run by assay provider. The assay is classed as functional.

The target in assay [15] is T4, Orexin/Hypocretin receptor type 1. The experiment in a line: Fluorescence-based cell-based high throughput dose response assay for antagonists of the orexin 1 receptor (OX1R; HCRTR1). [Related pubchem assays (depositor defined):AID434989, AID435008, AID463079, AID485270, AID492963, AID492964, AID492965, AID493232, AID504717, AID504718]. It is filed as functional.

Assay [16] concerns the target T5, Orexin receptor type 2. The experiment in a line: Counterscreen assay for antagonists of the orexin 1 receptor (OX1R; HCRTR1): Homogeneous Time Resolved Fluorescence (HTRF)-based cell-based dose response assay for antagonists of the orexin 2 receptor (OX2R; HCRTR2), run by assay provider. It is filed as functional.
The target in assay [17] is T3, Ubiquitin-conjugating enzyme E2 N. It is filed as functional. This is another data set of the same source.
Another assay has as its target T6, Bcl-2-related protein A1 (Mus musculus, UniProt Q07440).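 Also: confirmatory dose–response counterscreen on Bfl-1, used to check hits from a UBC13 polyubiquitin inhibitor campaign.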
T6 sequence (Q07440 whole entry): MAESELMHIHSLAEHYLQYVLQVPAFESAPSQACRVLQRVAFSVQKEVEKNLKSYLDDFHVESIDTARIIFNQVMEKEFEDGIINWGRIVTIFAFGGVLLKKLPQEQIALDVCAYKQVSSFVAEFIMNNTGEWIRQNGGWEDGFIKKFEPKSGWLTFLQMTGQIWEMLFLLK
It is filed as functional.

The nature of assay [18]: Luminescence Cell-Based Dose Retest to Confirm Inhibitors of Cancer Stem Cells. [Related pubchem assays (depositor defined):AID2717, AID2721]. Particulars: Homo sapiens. The assay is classed as functional.
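For AC50 in this document: cells exposed to compound for roughly 70 hours or longer before luminescence read.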

A word on the IC50: it is the concentration needed to halve the response being measured. A word on the EC50: it is the concentration giving half of the maximal effect. One may read the CC50 as the concentration at which the toxic effect on the cells reaches its halfway point. For `Cc1c(CN2CCC(CO)(CCOc3ccccc3)CC2)[nH]c2ccc(Cl)cc12`, the IC50 in assay [1] was 38.8 µM (inactive); in assay [2], 64.4 µM (inactive); in the assay on HEK293 [3], 28.3 µM (inactive); in “cells” it was 8.32 µM (active); in assay [8], 25.8 µM (inactive); in [9] it was > 20 µM (inactive). Besides, the EC50 was > 54.7 µM (inactive) with HEK293 [4], 15.9 µM (inactive) at Insulin-degrading enzyme [5] and > 54.7 µM (inactive) at Insulin-degrading enzyme [10]. For the same compound, the results for the CC50 in assay [6], in [7] and in assay [11] were 15.1 µM (active), 17.9 µM (active) and 16.8 µM (active), respectively.
On to `COc1ccc([C@@H]2CC=C(C(=O)O)[C@H](c3cccc(Cl)c3)N2S(=O)(=O)c2ccccc2C)cc1`, for which the IC50 in assay [12] was > 49.7 µM (inactive); in the assay with CHO-K1, > 66.2 µM (inactive); in assay [13] it was 1.09 µM (active); at Orexin receptor type 2 [14], 17.1 µM (inactive); in assay [15] it was 14.6 µM (inactive); at Orexin receptor type 2 [16] it was 3.32 µM (active).
As usually defined, the AC50 is the concentration at which the activity in the assay is half-maximal. Consider `FC(F)(F)c1cc(CCN2CCNC[C@H]2Cc2cccc3ccccc23)cc(C(F)(F)F)c1`, for which the IC50 was 10.1 µM (inactive) in the assay with HEK293 [3], 9.82 µM (active) in assay [17], > 20 µM (inactive) on Bcl-2-related protein A1 and 11.7 µM (active) in [9]. The EC50 was > 55.9 µM (inactive) in the assay on HEK293 [4], 11.1 µM (inactive) on Insulin-degrading enzyme [5] and > 54.7 µM (inactive) on Insulin-degrading enzyme [10]. For the same compound, the AC50 in assay [18] was 3.37 µM (active).
